Activity calls are given as the source filed them. The rule behind the calls is not given here. Non-standard residues stand in square brackets, D forms with d. Residues, ends and D or L forms follow the SMILES beside them. *: point of attachment. Phe(4-Br) = N[C@@H](Cc1ccc(Br)cc1)C(=O)O; Fmoc = O=C(OCC1c2ccccc2-c2ccccc21)*; PEG6 = NCCOCCOCCOCCOCCOCCOCCC(=O)O; Palmitoyl = CCCCCCCCCCCCCCCC(=O)*; NMeL = CN[C@@H](CC(C)C)C(=O)O; Nle = CCCC[C@H](N)C(=O)O; Aib = CC(C)(N)C(=O)O

For series [1], the system named is Mus musculus. Put plainly: Blood pressure lowering activity in anesthetized mouse assessed as change in mean arterial blood pressure at 1.4 uM/kg, iv. Conditions: TDE = time-dependent effect. The series is classed as functional.
Series [2] deals with T1, Apelin receptor (Rattus norvegicus) (UniProt Q9JHG3).
T1 sequence (whole entry): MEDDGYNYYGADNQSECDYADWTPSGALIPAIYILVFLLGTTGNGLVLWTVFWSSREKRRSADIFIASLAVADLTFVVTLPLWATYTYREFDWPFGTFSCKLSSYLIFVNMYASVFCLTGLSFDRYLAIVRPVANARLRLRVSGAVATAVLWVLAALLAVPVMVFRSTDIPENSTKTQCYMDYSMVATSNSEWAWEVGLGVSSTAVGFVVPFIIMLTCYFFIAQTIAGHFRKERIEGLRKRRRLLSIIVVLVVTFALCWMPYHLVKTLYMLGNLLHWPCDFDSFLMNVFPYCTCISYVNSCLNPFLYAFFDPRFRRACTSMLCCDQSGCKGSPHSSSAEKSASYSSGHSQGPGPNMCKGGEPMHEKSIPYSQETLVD
The series is described as follows: Displacement of [125I]-(Glp1,Nle11,[…])apelin-13 from recombinant rat EGFP-fused apelin receptor expressed in CHO cell membrane measured after 3 hrs. The series is classed as cell membranes.

In series [3] the test system is Mus musculus. Put plainly: Blood pressure lowering activity in anesthetized mouse assessed as increase in heart rate at 1.4 uM/kg, iv measured up to 60 mins. It is filed as functional, organism-based.
Series [4] deals with CC[C@H](C)[C@H](NC(=O)[C@H](CCCNC(=N)N)NC(=O)[C@H](CO)NC(=O)[C@H](CO)NC(=O)[C@H](CCCNC(=N)N)NC(=O)[C@H](Cc1ccccc1)NC(=O)[C@@H]1CCCN1C(=O)[C@H](CO)NC(=O)[C@H](Cc1ccccc1)NC(=O)CNC(=O)c1ccccc1N)C(=O)N[C@@H](CCC(N)=O)C(=O)NCCNc1ccc([N+](=O)[O-])cc1[N+](=O)[O-]. Put plainly: (§1) Substrate activity at human KLKB1 assessed as Km by fluorescence assay. It is filed as ADME.
The subject of series [5] is CC[C@H](C)[C@H](NC(=O)[C@H](CCCNC(=N)N)NC(=O)[C@H](CC(C)C)NC(=O)[C@H](CO)NC(=O)[C@H](CCCNC(=N)N)NC(=O)[C@H](Cc1ccccc1)NC(=O)[C@@H]1CCCN1C(=O)[C@H](CO)NC(=O)[C@H](Cc1ccccc1)NC(=O)CNC(=O)c1ccccc1N)C(=O)N[C@@H](CCC(N)=O)C(=O)NCCNc1ccc([N+](=O)[O-])cc1[N+](=O)[O-]. The series is described as §1. It is filed as ADME.
For series [6], the system named is CCCC[C@H](NC(=O)[C@@H]1CCCN1C(=O)CNC(=O)[C@H](CCCCN)NC(=O)[C@H](Cc1c[nH]cn1)NC(=O)[C@H](CO)NC(=O)[C@H](CC(C)C)N(C)C(=O)[C@H](CCCNC(=N)N)NC(=O)[C@@H]1CCCN1C(=O)[C@H](CCCNC(=N)N)NC(=O)[C@H](CCC(N)=O)NC(=O)[C@H](CCCNC(=N)N)NC(=O)[C@H](CCCNC(=N)N)NC(=O)[C@H](Cc1ccccc1)NC(=O)[C@@H](N)CCCCN)C(=O)NC(C)(C)C(=O)N[C@@H](Cc1ccc(Br)cc1)C(=O)O. Put plainly: (§2) Substrate activity at recombinant human C-terminal His6-tagged KLKB1 (Pro19 to Ser262 residues) expressed in mammalian expression system assessed as Km measured after 30 to 60 mins by LC-MS analysis. It is filed as ADME.

Series [7] deals with CCCC[C@H](NC(=O)[C@@H]1CCCN1C(=O)CNC(=O)[C@H](CCCCN)NC(=O)[C@H](Cc1c[nH]cn1)NC(=O)[C@H](CO)NC(=O)[C@H](CC(C)C)NC(=O)[C@H](CCCNC(=N)N)NC(=O)[C@@H]1CCCN1C(=O)[C@H](CCCNC(=N)N)NC(=O)[C@H](CCC(N)=O)NC(=O)[C@H](CCCNC(=N)N)NC(=O)[C@H](CCCNC(=N)N)NC(=O)[C@H](Cc1ccccc1)NC(=O)[C@@H](N)CCCCN)C(=O)NC(C)(C)C(=O)N[C@@H](Cc1ccc(Br)cc1)C(=O)O. The series is described as §2. It is filed as ADME.

The subject of series [8] is CSCC[C@H](NC(=O)[C@H](CO)NC(=O)[C@H](CO)NC(=O)[C@H](CC(C)C)NC(=O)[C@@H](N)CO)C(=O)N[C@H](C(=O)N[C@@H](CCCNC(=N)N)C(=O)N[C@H](C(=O)N[C@H](C(=O)NCC(=O)NCC(=O)O)C(C)C)C(C)C)[C@@H](C)O. Put plainly: Substrate activity at human KLKB1 assessed as Km by spectrofluorimetric method. The series is classed as ADME.

Sequence of Plasma kallikrein (Homo sapiens) (chain, as listed by the source): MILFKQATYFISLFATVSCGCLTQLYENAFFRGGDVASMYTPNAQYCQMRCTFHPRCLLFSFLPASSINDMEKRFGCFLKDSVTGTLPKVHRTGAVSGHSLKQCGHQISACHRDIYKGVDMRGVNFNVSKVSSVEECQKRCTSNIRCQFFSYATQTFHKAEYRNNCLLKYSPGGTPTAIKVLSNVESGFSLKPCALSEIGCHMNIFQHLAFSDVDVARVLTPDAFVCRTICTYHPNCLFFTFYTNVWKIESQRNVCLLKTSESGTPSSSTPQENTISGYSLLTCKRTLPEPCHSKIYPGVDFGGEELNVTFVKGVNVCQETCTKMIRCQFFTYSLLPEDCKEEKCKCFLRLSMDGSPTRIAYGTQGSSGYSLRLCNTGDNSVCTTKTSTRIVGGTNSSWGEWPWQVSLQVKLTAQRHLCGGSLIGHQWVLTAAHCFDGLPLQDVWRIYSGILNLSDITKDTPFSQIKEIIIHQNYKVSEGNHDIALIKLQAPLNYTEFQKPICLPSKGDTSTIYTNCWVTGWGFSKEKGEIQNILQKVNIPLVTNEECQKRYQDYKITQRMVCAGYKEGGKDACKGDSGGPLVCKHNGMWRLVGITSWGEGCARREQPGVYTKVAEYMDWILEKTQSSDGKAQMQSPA

On to `CSCC[C@H](NC(=O)[C@@H]1CCCN1C(=O)CNC(=O)[C@H](CCCCN)NC(=O)[C@H](Cc1cnc[nH]1)NC(=O)[C@H](CO)NC(=O)[C@H](CC(C)C)NC(=O)[C@H](CCCNC(=N)N)NC(=O)[C@@H]1CCCN1C(=O)[C@H](CCCNC(=N)N)NC(=O)[C@H](CCC(N)=O)NC(=O)[C@H](CCCNC(=N)N)NC(=O)[C@H](CCCNC(=N)N)NC(=O)[C@H](Cc1ccccc1)NC(=O)[C@@H](N)CCCCN)C(=O)N1CCC[C@H]1C(=O)N[C@@H](Cc1ccccc1)C(=O)O`, for which the Activity result in the series with Mus musculus [1] is “Tde”.
Take `CCCC[C@H](NC(=O)[C@@H]1CCCN1C(=O)CNC(=O)[C@H](CCCCN)NC(=O)[C@H](Cc1c[nH]cn1)NC(=O)[C@H](CO)NC(=O)[C@H](CC(C)C)NC(=O)[C@H](CCCNC(=N)N)NC(=O)[C@@H]1CCCN1C(=O)[C@H](CCCNC(=N)N)NC(=O)[C@H](CCC(N)=O)NC(=O)[C@H](CCCNC(=N)N)NC(=O)[C@H](CCCNC(=N)N)NC(=O)[C@H](Cc1ccccc1)NC(=O)[C@@H](N)CCCCN)C(=O)NC(C)(C)C(=O)N[C@@H](Cc1ccc(Br)cc1)C(=O)O` (H-KFRRQRPRLSHKGP[Nle][Aib][Phe(4-Br)]-OH): the “displacement activity (active/inactive)” value in series [2] is “Active”. Moreover, the Activity entry with Mus musculus [1] was “Tde”.
In the case of `CCCC[C@H](NC(=O)[C@@H]1CCCN1C(=O)CNC(=O)[C@H](CCCCN)NC(=O)[C@H](Cc1c[nH]cn1)NC(=O)[C@H](CO)NC(=O)[C@H](CC(C)C)N(C)C(=O)[C@H](CCCNC(=N)N)NC(=O)[C@@H]1CCCN1C(=O)[C@H](CCCNC(=N)N)NC(=O)[C@H](CCC(N)=O)NC(=O)[C@H](CCCNC(=N)N)NC(=O)[C@H](CCCNC(=N)N)NC(=O)[C@H](Cc1ccccc1)NC(=O)[C@@H](N)CCCCN)C(=O)NC(C)(C)C(=O)N[C@@H](Cc1ccc(Br)cc1)C(=O)O` (H-KFRRQRPR[NMeL]SHKGP[Nle][Aib][Phe(4-Br)]-OH), the “displacement activity (active/inactive)” value in series [2] was “Active”. In the series on Mus musculus [1], the Activity result is “Tde”.
With `CCCC[C@H](NC(=O)[C@@H]1CCCN1C(=O)CNC(=O)[C@H](CCCCN)NC(=O)[C@H](Cc1cnc[nH]1)NC(=O)[C@H](CO)NC(=O)[C@H](CC(C)C)NC(=O)[C@H](CCCNC(=N)N)NC(=O)[C@@H]1CCCN1C(=O)[C@H](CCCNC(=N)N)NC(=O)[C@H](CCC(N)=O)NC(=O)[C@@H](N)CCCNC(=N)N)C(=O)NC(C)(C)C(=O)N[C@@H](Cc1ccc(Br)cc1)C(=O)O` (H-RQRPRLSHKGP[Nle][Aib][Phe(4-Br)]-OH), in series [2], the “displacement activity (active/inactive)” value is “Active”. Besides, in the series on Mus musculus [1], the Activity result is “Tde”.
Regarding `CCCC[C@H](NC(=O)[C@@H]1CCCN1C(=O)CNC(=O)[C@H](CCCCN)NC(=O)[C@H](Cc1cnc[nH]1)NC(=O)[C@H](CO)NC(=O)[C@H](CC(C)C)N(C)C(=O)[C@H](CCCNC(=N)N)NC(=O)[C@@H]1CCCN1C(=O)[C@H](CCCNC(=N)N)NC(=O)[C@H](CCC(N)=O)NC(=O)[C@@H](N)CCCNC(=N)N)C(=O)NC(C)(C)C(=O)N[C@@H](Cc1ccc(Br)cc1)C(=O)O` (H-RQRPR[NMeL]SHKGP[Nle][Aib][Phe(4-Br)]-OH), the “displacement activity (active/inactive)” value in series [2] was “Active”. In addition, in the series with Mus musculus [1], the Activity entry is “Tde”.
Turning to `CCCCCCCCCCCCCCCC(=O)N[C@@H](CCCCN)C(=O)N[C@@H](Cc1ccccc1)C(=O)N[C@@H](CCCNC(=N)N)C(=O)N[C@@H](CCCNC(=N)N)C(=O)N[C@@H](CCC(N)=O)C(=O)N[C@@H](CCCNC(=N)N)C(=O)N1CCC[C@H]1C(=O)N[C@@H](CCCNC(=N)N)C(=O)N[C@@H](CC(C)C)C(=O)N[C@@H](CO)C(=O)N[C@@H](Cc1cnc[nH]1)C(=O)N[C@@H](CCCCN)C(=O)NCC(=O)N1CCC[C@H]1C(=O)N[C@@H](CCCC)C(=O)NC(C)(C)C(=O)N[C@@H](Cc1ccc(Br)cc1)C(=O)O` (Palmitoyl-KFRRQRPRLSHKGP[Nle][Aib][Phe(4-Br)]-OH), the “displacement activity (active/inactive)” value in series [2] is “Active”. Further, the Activity result in the series with Mus musculus [1] was “Tde”.
As to `CCCCCCCCCCCCCCCC(=O)N[C@@H](CCCCN)C(=O)N[C@@H](Cc1ccccc1)C(=O)N[C@@H](CCCNC(=N)N)C(=O)N[C@@H](CCCNC(=N)N)C(=O)N[C@@H](CCC(N)=O)C(=O)N[C@@H](CCCNC(=N)N)C(=O)N1CCC[C@H]1C(=O)N[C@@H](CCCNC(=N)N)C(=O)N(C)[C@@H](CC(C)C)C(=O)N[C@@H](CO)C(=O)N[C@@H](Cc1cnc[nH]1)C(=O)N[C@@H](CCCCN)C(=O)NCC(=O)N1CCC[C@H]1C(=O)N[C@@H](CCCC)C(=O)NC(C)(C)C(=O)N[C@@H](Cc1ccc(Br)cc1)C(=O)O` (Palmitoyl-KFRRQRPR[NMeL]SHKGP[Nle][Aib][Phe(4-Br)]-OH), the “displacement activity (active/inactive)” value in series [2] was “Active”. In addition, the outcome in the series with Mus musculus [3] was Active.
Take `CCCC[C@H](NC(=O)[C@@H]1CCCN1C(=O)CNC(=O)[C@H](CCCCN)NC(=O)[C@H](Cc1cnc[nH]1)NC(=O)[C@H](CO)NC(=O)[C@H](CC(C)C)NC(=O)[C@H](CCCNC(=N)N)NC(=O)[C@@H]1CCCN1C(=O)[C@H](CCCNC(=N)N)NC(=O)[C@H](CCC(N)=O)NC(=O)[C@H](CCCNC(=N)N)NC(=O)[C@H](CCCNC(=N)N)NC(=O)[C@H](Cc1ccccc1)NC(=O)[C@H](CCCCN)NC(=O)CCOCCOCCOCCOCCOCCOCCNC(=O)OCC1c2ccccc2-c2ccccc21)C(=O)NC(C)(C)C(=O)N[C@@H](Cc1ccc(Br)cc1)C(=O)O` ({Fmoc-PEG6}-KFRRQRPRLSHKGP[Nle][Aib][Phe(4-Br)]-OH): the “displacement activity (active/inactive)” value in series [2] was “Active”. In addition, in the series with Mus musculus [1], the Activity result is “Tde”.
With `CCCC[C@H](NC(=O)[C@@H]1CCCN1C(=O)CNC(=O)[C@H](CCCCN)NC(=O)[C@H](Cc1cnc[nH]1)NC(=O)[C@H](CO)NC(=O)[C@H](CC(C)C)N(C)C(=O)[C@H](CCCNC(=N)N)NC(=O)[C@@H]1CCCN1C(=O)[C@H](CCCNC(=N)N)NC(=O)[C@H](CCC(N)=O)NC(=O)[C@H](CCCNC(=N)N)NC(=O)[C@H](CCCNC(=N)N)NC(=O)[C@H](Cc1ccccc1)NC(=O)[C@H](CCCCN)NC(=O)CCOCCOCCOCCOCCOCCOCCNC(=O)OCC1c2ccccc2-c2ccccc21)C(=O)NC(C)(C)C(=O)N[C@@H](Cc1ccc(Br)cc1)C(=O)O` ({Fmoc-PEG6}-KFRRQRPR[NMeL]SHKGP[Nle][Aib][Phe(4-Br)]-OH), in series [2], the “displacement activity (active/inactive)” value was “Active”. In addition, the Activity result with Mus musculus [1] is “Tde”.
The term Km denotes the concentration of substrate that gives half-maximal velocity. The term Vmax denotes the rate approached at saturating substrate. For orientation: kcat means the maximal rate divided by the concentration of active sites. Usually kcat/Km stands for the turnover number divided by the Michaelis constant. Turning to Plasma kallikrein (Homo sapiens), the Km in series [4] was determined as 2.2 µM; in series [5], 1.8 µM; in series [6], 245 µM; in series [7], 30 µM; in series [8] it was 2.4 µM. For the same compound, the Vmax in series [6] was determined as 3.71 µmol/min; in series [7], 0.316 µmol/min. The kcat in series [6] was 16.5 s⁻¹; in series [7], 1.4 s⁻¹; in series [8] it was 0.001 s⁻¹. In addition, the kcat/Km amounted to 67000 M⁻¹ s⁻¹ in series [6], 47000 M⁻¹ s⁻¹ in series [7] and 420 M⁻¹ s⁻¹ in series [8].

For the origin of these results see ChEMBL document CHEMBL4400521, “Plasma kallikrein cleaves and inactivates apelin-17: Palmitoyl- and PEG-extended apelin-17 analogs as metabolically stable blood pressure-lowering agents” (Eur J Med Chem, 2019).
